Counter-ions that a name gives are not always drawn.
Columns and labels:
[1] = system: MDA-MB-231; experiment: IC20 of E7389 for the cell line tested (MDA-MB-231); assay type: cell-based; details: Homo sapiens
Description: Transfection conditions for human breast cancer cell lines MDA-MB-231 (ATCC Catalog No. HTB26™) and BT-549 (ATCC Catalog No. HTB122™) were optimized using transfection reagent DharmaFect 1 from Dharmacon. The MDA-MB-231 and BT-549 cell lines have been reported to be Estrogen Receptor (ER) negative, Progesterone Receptor (PR) negative and HER-2 negative (triple negative). As a non-targeting negative control we used Silencer Negative Control #1 siRNA from Applied Biosystems. The siGENOME TOX (siTOX) Transfection Control (Dharmacon), an RNA duplex designed to induce cell death, was used as a positive control for cell proliferation assays. A reverse transfection procedure in which siRNA was first mixed with transfection reagent and then cells were added to the well, was used in all experiments. Cell viability was compared in cells treated with medium, negative control siRNA and siTOX reagent combined with different amount of DharmaFect 1. […]
The whole human genome siRNA library was purchased from Dharmacon. […] Cell viability was determined at 96 hours after transfection by CellTiter-Glo luminescent assay from Promega. […] Plates were mixed for 2 minutes on a horizontal shaker, incubated for 10 minutes and read on an EnVision® multilabel plate reader from PerkinElmer.

[2] = system: BT-549 cells; experiment: IC20 of E7389 for BT-549 cells; assay type: cell-based; details: Homo sapiens

Which IC20 [1] does the source give for C=C1C[C@@H]2CC[C@@]34C[C@H]5O[C@H]6C(O3)[C@H]3OC(CC[C@@H]3O[C@H]6[C@H]5O4)CC(=O)C[C@@H]3[C@@H](OC)[C@@H](C[C@H](O)CN)O[C@H]3CC3O[C@@H](CCC1O2)C[C@@H](C)C3=C [E7389, 11,15:18,21:24,28-Triepoxy-7,9-ethano-12,15-methano-9H,15H-furo[3,2-i]furo[2′,3′:5,6]pyrano[4,3-b][1,4]dioxacyclopentacosin-5(4H)-one, 2-[(2S)-3-amino-2-hydroxypropyl]hexacosahydro-3-methoxy-26-methyl-20,27-bis(methylene)-, (2R,3R,3aS,7R,8aS,9S,10aR,11S,12R,13aR,13bS,15S,18S,21S,24S,26R,28R,29aS)-methanesulfonate (salt)] here?
The IC20 was 0.75 nM.

What about the IC20 [2] of the same molecule?
The IC20 was 0.25 nM.
